Assay [1] relates to PDBu receptor (phorboid receptor) of murine brain membranous fraction (BMF). Briefly: PDBu binding inhibiting activity (PBIA): inhibition of 3H-PDBu binding to murine brain membranous fraction. On the set-up: species or system murine (mouse, NFS strain). How it is done:
Pooled murine brains from approximately 2 month old mice, NFS strain, were minced with scissors, suspended in 1 mM triethanolamine-HCl, pH 7.4, and disrupted with a polytron P-10 (Brinkman). This and all subsequent steps were performed at 4° C. The homogenate was centrifuged for 10 minutes at 1700 xg; the supernate was removed and centrifuged for 60 minutes at 105,000 xg. The resulting pellet was suspended in one-fourth of the initial volume of PBS. The suspension was aliquoted into a small volume and stored at -70° C.
The binding of ^3 H-PDBu to BMF or soluble receptors was performed in duplicate in 12×75 mm disposable glass tubes (Kimax) both in the absence and presence of 20 μg/ml unlabeled PDBu; the binding mixture contained 5 ng of ^3 H-PDBu (4×10^4 cpm), 0.2% final concentration of DMSO and BMF (50 μg protein) or soluble receptors in a total volume of 0.25 ml binding buffer (BB) consisting of Dulbecco's minimum essential medium (DMEM) containing bovine serum albumin (BSA 1 mg/ml) and N,N,-bis-(2-hydroxyethyl)-2-amino-ethane sulfonic acid (BES, 5 mM), adjusted to pH 6.8. After incubation for 30 minutes at 23° C. the tubes were chilled, 0.5 ml cold 4% calf serum (Colorado Serum Co., Denver, Colo.) and 0.7 ml cold polyethylene glycol (PEG 6,000) in 1 mM Tris-HCl, pH 7.4 was added to each tube, the contents vortexed, the tubes allowed to stand for 15 min at 4° C., and centrifuged for 10 in at 1500 xg at 4° C. The supernatant solution was carefully aspirated off, the pellet suspended in 2.5 ml of cold 10% PEG in 0.1M Tris-HCl, pH 7.4, containing 0.5% SDS and 1 mM EDTA). The mixture was transferred to counting vials and 10 ml of Aquassure (NEN) was added to each vial. The vials were vigorously shaken and radioactivity determined using a Beckman beta counter. The radioactivity bound in the presence of 20 μg/ml (50-200 cpm) unlabeled PDBu was considered to be nonspecific and all data were corrected accordingly.
The loss of the ability of ^3 H-PDBu to bind to receptors in the presence of ligand was used as the measure of inhibiting activity. PDBu binding inhibition assays were performed as described above, except the test materials were added to the reaction mixture and binding measured as described above.
The PBIA of ligand was equated with that of PDBu by the use of the term ng equivalent calculated from a plot of [^3 H]PDBu bound versus the log molar concentration for several biologically active phorbol esters (2). The curve corresponding to PDBu inhibition of PDBu binding was used by reading the molar concentration corresponding to the percent of control binding of [^3 H]PDBu in the presence of ligand to obtain the units ng PDBu equivalent of ligand.

Assay [2] deals with purified phorboid receptor (serine-protein kinase). Kind of assay: Protein kinase activity of purified phorboid receptor. The assay is classed as biochemical, murine. The method, then: In the final volume of 0.25 ml, the reaction mixture in duplicate contained 5 μmol Tris-HCl (pH 7.4), 1 μmol MgCl2, 50 μg histone, 0.12 nmol [-^32 P] ATP (8×10^6 cpm at arrival) and an appropriate amount of purified receptor protein. The reaction was carried out for 15 min at 23° C. The phosphorylated proteins were precipitated with 5% cold TCA, using BSA (250 μg) as carrier. The mixture in the tubes was allowed to settle at 4° C. for 15-30 min. Precipitates were collected on cellulose nitrate filters (0.45 μm) and washed with 75 ml of cold 5% TCA. Filters were dried and counted in Betafluor scintillation fluid.
Purified phorboid receptor from murine brain was purified to homogeneity and shown that the purified receptor is a serine-protein kinase (Shoyab, Cell Proliferation (CSH Laboratory) (1984) 11:253-262). The effect of PBIL on this protein kinase was tested. […] At higher concentration the kinase activity was inhibited (Table 4).
The assay conditions were the same as described in the text except the indicated amount of PBIL and 25 ng of purified receptor protein (Shoyab, Cell Proliferation (CSH Laboratory) (1984) 11:253-262) were used.

For the next assay, the system named is arachidonic acid cascade. Kind of assay: Stimulation of arachidonic acid cascade: release of radioactivity from cells labeled with radioactive arachidonic acid. The assay is classed as cell-based. An excerpt:
(§1) The release of radioactivity into the medium from cells previously labeled with radioactive arachidonic acid was used as a measure of activation of eicosanoids pathway. […] PBIL from all sources inhibited PDBu-receptor interaction.

Assay [3] deals with arachidonic acid cascade in mink lung cells. Kind of assay: Activation of arachidonic acid cascade in mink lung cells. The assay is classed as cell-based.
Source text: as §1

The mark [4] stands for this setting: concentration 0.8 (unit not given).
Where [5] appears, read: concentration 0.2 (unit not given).
[6] abbreviates: concentration 0.4 (unit not given).

“And” between values parts separate entries of the source, which are not always exact repeats. Identical values can stand only once.

`CCCCCCCCCCCCCCCC(=O)OCC(O)CO` (stereo not drawn) [1-Monopalmitin, 1-monopalmitin]: in assay [1] (setting [4]), the “Inhibition of binding of PDBu to its receptor” value (shortened to “Inhibition of binding of PDBu”) was -6% and -15%.

With `CCCCCCCCCCCCCC(=O)O[C@@H]1[C@@H](C)[C@@]2(O)[C@@H](C=C(CO)C[C@]3(O)C(=O)C(C)=C[C@@H]23)[C@@H]2C(C)(C)[C@]12OC(C)=O` [TPA, 12-0-tetradecanoylphorbol-13-acetate], in assay [2], the “Stimulation of protein kinase activity (in words)” value is “stimulated the kinase activity”.

Regarding `CCCCC/C=C\C/C=C\C/C=C\C/C=C\CCCC(=O)OCC(O)CO` (stereo not drawn) [1-Monoarachidonin, 1-monoarachidonin], the “Stimulation of arachidonic acid cascade (release of radioactivity into the medium)” value (“Stimulation of arachidonic acid cascade” below) in the assay on arachidonic acid cascade is recorded as “stimulate the arachidonic acid cascade”. The “Inhibition of / competition for PDBu binding to receptor (in words)” value (“Inhibition of / competition” for short) in assay [1] was “compete with phorbol dibutyrate for its receptor”. The “Inhibition of binding of PDBu” value was 41% in assay [1] (setting [5]), 91% in assay [1] (setting [6]) and 95% in assay [1] (setting [4]).

For `CC/C=C\C/C=C\C/C=C\CCCCCCCC(=O)OCC(O)CO` (stereo not drawn) [1-Monolinolenin, 1-monolinolenin], the “Inhibition of binding of PDBu” value was determined as 27% in assay [1] (setting [5]), 74% in assay [1] (setting [6]) and 94% in assay [1] (setting [4]).

For `CCCCC/C=C\C/C=C\CCCCCCCC(=O)OCC(COC(=O)CCCCCCC/C=C\C/C=C\CCCCC)OC(=O)CCCCCCC/C=C\C/C=C\CCCCC` [Trilinolein, reference compound], in assay [1] (setting [4]), the “Inhibition of binding of PDBu” value is reported as -1%.

As for `CCCCC/C=C\C/C=C\CCCCCCCC(=O)OC[C@@H](O)CO` [1-Monolinolein, 1-monolinolein], the “Stimulation of arachidonic acid cascade” value with arachidonic acid cascade is given as “stimulate the arachidonic acid cascade”. Moreover, the “Inhibition of / competition” value in assay [1] is “compete with phorbol dibutyrate for its receptor”. Further, the “Inhibition of binding of PDBu” value in assay [1] (setting [5]) is reported as 39%; in assay [1] (setting [6]) it was 82%; in assay [1] (setting [4]), 94%. In addition, in assay [3], the “Activation of arachidonic acid cascade” value was “activated the arachidonic acid cascade in mink lung cells in a dose- and time-dependent manner”.

For the compound `CCCCC/C=C\C/C=C\CCCCCCCC(=O)OCC(O)COC(=O)CCCCCCC/C=C\C/C=C\CCCCC` [1,3-Dilinolein, reference compound], in assay [1] (setting [4]), the “Inhibition of binding of PDBu” value is reported as 15%.

For the compound `CCCCCCCC/C=C\CCCCCCCC(=O)OCC(O)CO` (stereo not drawn) [1-Monoolein, 1-monoolein], the “Inhibition of binding of PDBu” value in assay [1] (setting [6]) came out at 21%; in assay [1] (setting [4]), 63%.

As for `CCCCCCCC/C=C\CCCCCCCC(=O)OCC(O)COC(=O)CCCCCCC/C=C\CCCCCCCC` [1,3-Diolein, reference compound], the “Inhibition of binding of PDBu” value in assay [1] (setting [4]) is reported as 11%.

As for `CCCCCCCC/C=C\CCCCCCCC(=O)OCC(CO)OC(=O)CCCCCCC/C=C\CCCCCCCC` (stereo not drawn) [1,2-Diolein, reference compound], the “Inhibition of binding of PDBu” value in assay [1] (setting [4]) is 20%.

In the case of `CCCCC/C=C\C/C=C\CCCCCCCC(=O)O` [Linoleic acid-Na, reference compound], the “Inhibition of binding of PDBu” value in assay [1] (setting [6]) is reported as 10%; in assay [1] (setting [4]), 15%.

As to `CCCCCCCCCCCCCCCC(=O)OCC(O)COC(=O)CCCCCCCCCCCCCCC` [1,3-Dipalmitin, reference compound], in assay [1] (setting [4]), the “Inhibition of binding of PDBu” value is recorded as -12%.

Take `CCCCCCCCCCCCCC(=O)OCC(COC(=O)CCCCCCCCCCCCC)OC(=O)CCCCCCCCCCCCC` [Trimystrin, reference compound]: the “Inhibition of binding of PDBu” value in assay [1] (setting [6]) is given as 15%.

Consider `OCC(O)CO` [Glycerol, reference compound], for which the “Inhibition of binding of PDBu” value in assay [1] (setting [6]) was 0%.

Take `CCCCCCCCCCCC(=O)OCC(COC(=O)CCCCCCCCCCC)OC(=O)CCCCCCCCCCC` [Trilaurin, reference compound]: the “Inhibition of binding of PDBu” value in assay [1] (setting [6]) came out at 11%.

With `CCCCCC/C=C\CCCCCCCC(=O)OCC(O)CO` (stereo not drawn) [1-Monopalmitolein, 1-monopalmitolein], the “Stimulation of arachidonic acid cascade” value in the assay on arachidonic acid cascade is given as “stimulate the arachidonic acid cascade”. Moreover, the “Inhibition of / competition” value in assay [1] is “compete with phorbol dibutyrate for its receptor”. The “Inhibition of binding of PDBu” value came out at 36% in assay [1] (setting [6]) and 82% in assay [1] (setting [4]).

For the compound `CCCCCCCCCCCCCC(=O)OCC(O)COC(=O)CCCCCCCCCCCCC` [1,3-Dimyristin, reference compound], the “Inhibition of binding of PDBu” value in assay [1] (setting [6]) is recorded as 1%.

Take `CCCCCCCCCCCCCCCC(=O)OCC(COC(=O)CCCCCCCCCCCCCCC)OC(=O)CCCCCCCCCCCCCCC` [Tripalmitin, reference compound]: the figures for the “Inhibition of binding of PDBu” value in assay [1] (setting [6]) and in assay [1] (setting [4]) were -11% and -8%, respectively.

Regarding `CCCCCCCCCCCCCC(=O)OCC(O)CO` (stereo not drawn) [1-Monomyristin, reference compound], the “Inhibition of binding of PDBu” value in assay [1] (setting [6]) was 0%.

The values above are taken from patent US5077312A, “Biologically active lipids binding membrane receptors” (priority 1990, dated 1991).
